Tests used:
[1] = Stability of E6005 and M11 in human dried blood spots; format: physicochemical
Experimental: Stability: Following stability of E6005 and M11 in DBS was assessed at low and high concentrations using LQC and HQC samples (three replicates/concentration): bench-top stability for 7 days at room temperature, long-term frozen stability for 160 days […] below −15° C., and processed sample stability for 85 h at 4° C. To investigate impacts of high humidity on the stability, bench-top stability test was performed at room temperature with relative humidity of ca. 80%-84%. Samples were considered stable when % bias from the nominal concentrations was within ±15%.

[2] = Phase 2 study RVT-501-2001, plasma concentrations of RVT-501 and M11; format: in vivo, human
Text: During the treatment period, subjects applied RVT-501 ointment or vehicle to affected areas twice daily (BID) for 28 days. Subjects returned to the clinic at Day 4 for evaluation, and again at Weeks 1, 2, 3, and 4 for safety and efficacy assessments. Pharmacokinetic samples were collected at Weeks 1 and 4. On clinic visit days (except on the Day 4 visit), subjects applied study drug on-site while under the supervision of site personnel, after efficacy assessments had been completed.
Statistical Methods: Efficacy Analyses: A sample size and power sensitivity analysis was conducted for the efficacy endpoints. Assuming an effect size (defined as difference of mean change from baseline EASI score between treatment groups relative to pooled standard deviation) of 0.7, a sample size of 50 subjects in an active arm and 50 subjects in the combined placebo will provide 93% power at an alpha level of 0.05 (2-sided), based on a 2-sided t-test. The sample size will also allow a difference of 33% between placebo and active treatment in a responder endpoint to be detected with 90% power and a 0.05 significance level assuming the proportion of responders in the placebo group is <=20%. Efficacy endpoints will be summarized and listed by treatment for each age group and both age groups combined; The between-treatment comparisons (active vs placebo and between active dose groups) for continuous efficacy variables will be performed using an analysis of covariance (ANCOVA) model. The between treatment comparisons for the proportion of responders will be compared using a CMH or Chi-square test. Safety Analyses: Adverse events will be mapped to a Medical Dictionary for Regulatory Activities (MedDRA). Treatment emergent adverse events will be summarized by treatment, preferred term and system organ classification. Descriptive summaries of vital signs, ECG parameters, and clinical laboratory results will be presented by study visit and treatment group. Pharmacokinetic Analyses: RVT-501 and M11 plasma concentrations will be listed by subject, treatment, and time; and will be summarized by treatment and time. The number and percent of subjects with a measurable concentration of either analyte at each time point and any time during the study will be provided.
Analysis Populations: Four analysis populations were used for this study. The Safety population, consisting of all subjects enrolled into the study who received study drug, was used for the safety analyses. The intent-to-treat (ITT) population, defined as all subjects randomized to treatment, was the primary population used for the efficacy analyses. The per protocol (PP) population included subjects who applied at least 50% of the doses. The PP population was used for confirmatory analysis of the efficacy variables. The PK population included all subjects who underwent plasma PK sampling and had at least one evaluable PK sample (a concentration reported as below the lower limit of quantitation (LLQ) of the assay was considered an evaluable PK sample).
Pharmacokinetics: Blood samples for PK analysis of RVT-501 and the M11 metabolite will be collected at the time points indicated in Table 1. The actual date and time of each blood sample collection will be recorded as well as the date and time of the last dose of study mediation. The timing of PK samples may be altered and/or PK samples may be obtained at additional time points to ensure thorough PK monitoring.
Pharmacokinetics summary: PK samples were collected pre-dose at Weeks 1 and 4, and 2-4 hrs post-dose at Week 4. […] Three patients had detectable M11 exposure with the highest value at 1.60 ng/mL.

[3] = system: pediatric subjects aged 2 to 15 years with mild to moderate AD; conditions: 0.05% and 0.2% ointment for 2 weeks; cited from earlier work
[4] = system: pediatric subjects with mild to moderate atopic dermatitis; assay: Phase 2 study in pediatric patients (Example 6), safety (adverse events); format: in vivo, human
Text: Safety Endpoint: Frequency and severity of adverse events (AE; local and systemic).
Analysis Populations: All subjects enrolled in the study who had at least one application of investigational product were included in the Safety Set (SS). This was the population for the safety analyses.
Safety Analyses: The number and proportion of subjects with AEs were summarized by treatment, system organ classification, and preferred term for all adverse events, all adverse events considered by the investigator to be related to study drug, all serious adverse events (SAE), all Common Terminology Criteria for Adverse Events (CTCAE) Grade 3 or higher AEs, and all adverse events leading to study discontinuation. Summaries of AEs were presented separately for the Double-Blind and Open-Label Extension Phases.
Laboratory data were analyzed using descriptive summary statistics and changes from baseline. Categorical safety data were analyzed using frequency tables and, if applicable, shift tables. Vital signs were listed by subjects and summarized by treatment.

[5] = system: adults with mild to moderate AD; conditions: 0.2% ointment BID, 4 weeks; cited from earlier work
[6] = system: Japanese male subjects with AD; conditions: ointment 0.01% to 0.2%; cited from earlier work
[7] = system: healthy Japanese male subjects; conditions: cited from earlier work
[8] = single dermal application; stripped skin; non-fasted male rats; cited from earlier work

## CNc1nc(-c2cccc(NC(=O)c3ccc(C(=O)O)cc3)c2)c2cc(OC)c(OC)cc2n1 [Formulation M11, 4-((3-(6,7-dimethoxy-2-(methylamino)quinazolin-4-yl)phenyl)carbamoyl)benzoic acid]
[1]; Bench-top, after 7 days at RT, HQC (160 ng/mL)
  % bias: 2.5%
[1]; Bench-top, after 7 days at RT, LQC (3 ng/mL)
  % bias: 6.0%
[1]; In processed samples, after 85 h at 4° C., HQC (160 ng/mL)
  % bias: 0.2%
[1]; In processed samples, after 85 h at 4° C., LQC (1 ng/mL)
  % bias: 5.9%
[1]; Long-term, after 160 days at RT, HQC (160 ng/mL)
  % bias: 9.4%
[1]; Long-term, after 160 days at RT, LQC (3 ng/mL)
  % bias: 0.3%
[1]; Long-term, after 160 days below −15° C., HQC (160 ng/mL)
  % bias: −1.3%
[1]; Long-term, after 160 days below −15° C., LQC (3 ng/mL)
  % bias: −1.3%
[1]; Under high humidity, after 7 days at humidity 80-84%, HQC (160 ng/mL)
  % bias: −12.5%
[1]; Under high humidity, after 7 days at humidity 80-84%, LQC (3 ng/mL)
  % bias: −2.3%
[2]; RVT-501 0.2% group, Week 1 pre-dose
  plasma M11 concentration, Subject 18014 (adolescent): 1.27 ng/mL
[2]; RVT-501 0.5% group, Week 1 pre-dose
  plasma M11 concentration, Subject 03005 (adult): 1.60 ng/mL
[2]; RVT-501 0.5% group, Week 4 pre-dose
  plasma M11 concentration, Subject 09003 (adult): 1.09 ng/mL
[2]; all groups, Weeks 1 and 4
  highest plasma concentration of M11 metabolite: 1.60 ng/mL

## CNc1nc(-c2cccc(NC(=O)c3ccc(C(=O)OC)cc3)c2)c2cc(OC)c(OC)cc2n1 [RVT-501, methyl N-[3-(6,7-dimethoxy-2-methylaminoquinazolin-4-yl)phenyl]terephthalamic acid]
[3]
  adverse events attributable to the investigational product: no adverse events considered attributable to the investigational product
[4]; Double-Blind Phase
  subjects with study-drug-related mild application site pruritus: 6.1%
[4]; human, in vivo
  safety and tolerability: generally safe and well tolerated
  subjects who experienced SAE (all deemed not related): two
[5]
  tolerability: tolerability was good
[6]
  skin irritation, adverse events, laboratory values, vital signs, ECG, ophthalmological findings: no clinically-significant findings
[7]; 0.01%-0.2% ointment QD or BID up to 11 days, patch/photopatch
  skin or systemic AEs: No significant skin or systemic AEs
[7]; ointment 0.01% to 0.2%
  skin irritation, adverse events, laboratory values, vital signs, ECG, ophthalmological findings: no clinically-significant findings
[8]
  radiolabelled RVT-501 in the skin application site 24 hours after administration, relative to levels after 30 minutes: 75%
[2]; RVT-501 0.2% group, Week 4
  highest plasma concentration of RVT-501: 1.23 ng/mL
[2]; RVT-501 0.2% group, Week 4, 2 hours post-dose
  plasma RVT-501 concentration, Subject 18014 (adolescent): 1.20 ng/mL
[2]; RVT-501 0.2% group, Week 4 pre-dose
  plasma RVT-501 concentration, Subject 18014 (adolescent): 1.23 ng/mL
[2]; Week 1 pre-dose, all treatment groups, LLQ
  plasma concentration of RVT-501: < 1.00 ng/mL
[2]; topical 0.2% and 0.5% BID
  systemic absorption: minimal to no systemic absorption

— patent US20210093637A1, “TOPICAL OINTMENT FORMULATIONS OF PDE-4 INHIBITOR AND THEIR USE IN TREATING SKIN CONDITIONS” (Dermavant Sciences GmbH, priority 2017, published 2021)
